This note sets out measurements from ChEMBL document CHEMBL4118282 (Bioorg Med Chem Lett, 2018).

Data set [1] in a line: Cytotoxicity against human MT4 cells assessed as reduction in cell viability after 5 days by MTT assay. It is filed as cell-based. For orientation: Tetrazolium assays rely on reduction of a dye to a coloured formazan, in cell work by metabolically active cells.
The nature of data set [2]: Therapeutic index, ratio of CC50 for human MT4 cells to EC50 for HIV1 3B […] infected in human MT4 cells. It is filed as toxicity, cell-based. The note with it: read-out: Ratio CC50/EC50.

The structures appear in SMILES notation.

A word on the CC50: it is the concentration giving 50% cytotoxicity. For `CC(C)c1nc(CN(C)C(=O)N[C@H](C(=O)N[C@@H](Cc2ccccc2)C[C@H](O)[C@H](Cc2ccccc2)NC(=O)OCc2cncs2)C(C)C)c[se]1`, the cytotoxic concentration (CC50) at 120 h in data set [1] worked out at 42 µM. Moreover, in data set [2], the selectivity ratio turned out to be 76.

Take `CC(C)[C@H](NC(=O)N(C)Cc1c[se]c(-c2ccccc2)n1)C(=O)N[C@@H](Cc1ccccc1)C[C@H](O)[C@H](Cc1ccccc1)NC(=O)OCc1cncs1`: the CC50 at 120 h in data set [1] was 21 µM. In addition, the selectivity ratio in data set [2] is 124.
